Test results published in patent US11707557B2, “Compositions and devices incorporating water-insoluble therapeutic agents and methods of the use thereof” (COOK MEDICAL TECHNOLOGIES LLC, priority 2014, dated 2023).
Values after ≈ are worked out from the molar mass of the structure shown. Read-outs that look alike come from different tables or passages of the source.

Tests used:
[1] = Rate of paclitaxel release from EGCG carrier coatings on balloon catheters; assay type: physicochemical
Description: A balloon catheter was inflated and revolved along its horizontal axis. […] The drug/EGCG solution was slowly pipetted onto the balloon using 25 microliters at a time and dried with gentle heat from an electric blowdryer. The catheter assembly was then left overnight to dry. To measure the drug release the catheter was inflated and immersed in 5 ml of PBS-albumin buffer at pH 7.4 for a specific time with mild revolution to create movement. The catheter was then removed and placed in a new tube containing 5 ml of PBS-Album in for the second drug release time point. One ml of dichloromethane was added to each 5 ml of PBS and the tube shaken. The contents were allowed to settle and the top liquid aspirated off. The dichloromemethane was allowed to dry and then the solids were redissolved in 60/40 acetonitrile/water v/v and drug quantitated by HPLC analysis (c18 column, 58/5/37 acetonitrile/methanol/water at 1 ml/min flow rate with detection at 232 nm)

[2] = system: fresh rat aorta artery; test: Paclitaxel uptake into artery tissue from coated balloon catheter; assay type: in vitro ADME; settings: for available paclitaxel taken up by the artery / available paclitaxel washed out from the artery: ignoring catheter residual and gloves wash
Description: A 2-3 cm strip of fresh rat aorta artery was placed over a 200 microliter pipette tip and fed onto the deflated balloon catheter to mimic the feeding of the balloon into the blood vessel. The balloon was then inflated and the system was left for 2 minutes at 37° C. in a bath of Hanks buffered salt solution (HBSS). The balloon was then deflated and 300 microliters of HBSS pipetted into the artery and the wash out collected in a centrifuge tube. This wash step was repeated three times. Because the handler's gloves were moist and had contacted the balloon (and therefore absorbed some EGCG/drug) the gloves fingers were washed extensively in 100 ml of HBSS.
The aorta tissue was placed in 500 microliters of tissue solubilizer and left at 60° C. for 4 hours to digest. The contents were then placed in a scintillation counter. The deployed catheter balloon was observed after the procedure. Some of the balloon had not deployed (the balloon was tight in the aorta and not fully inflated) and traces of the reddish colored EGCG/drug could be observed in the folds. […] The catheter balloon was then inflated in 5 ml of acetonitrile to recover the undissolved EGCG and measured by scintillation counting. All other fractions (aorta wash and gloves wash were also counted. These four fractions (aorta, gloves, catheter residual and aorta wash) accounted for all drug and the total scintillation count form everything was taken and 100% of the applied drug.
A balloon catheter was inflated and revolved along its horizontal axis. The drug/EGCG solution was slowly pipetted onto the balloon using 25 microliters at a time and dried with gentle heat from an electric blowdryer. A 2-3 cm strip of fresh rat aorta artery was placed over a 200 microliter pipette tip and fed onto the deflated balloon catheter to mimic the feeding of the balloon into the blood vessel. The balloon was then inflated and the system was sonicated for 2 minutes at 37° C. in Hanks buffered salt solution (HBSS) (4 MHz, 30 watts/cm2). The balloon was then deflated and 300 microl of (HBSS) was pipetted into the artery and the wash out collected in a centrifuge tube. This wash step was repeated three times. Samples were collected as in the previous example.
A balloon catheter was inflated and revolved along its horizontal axis. The drug/diblock solution was slowly pipetted onto the balloon using 25 microliters at a time and dried with gentle heat from an electric blowdryer. […] A 2-3 cm strip of fresh rat aorta artery was placed over a 200 ul pipette tip and fed onto the deflated balloon catheter to mimic the feeding of the balloon into the blood vessel. The system was then immersed in Hanks buffered salt solution (HBSS) at 37° C. for 2 minutes.
A balloon catheter was inflated and revolved along its horizontal axis. The drug/tannic acid solution was slowly pipetted onto the balloon using 25 microliters at a time and dried with gentle heat from an electric blowdryer.

[3] = 24 h
Description: (§3) PBS (EGCG) or water (tannic acid) was added and the final solution filtered through a 0.22 micron filter to remove any particulates. The solutions were analyzed for drug concentration using HPLC.
(§4) PBS (EGCG) or water (tannic acid) was added and the final solution filtered through a 0.22 micron filter to remove particulates. The solution was then analyzed for drug concentration using absorbance spectroscopy at 450 nm.
(§5) PBS (EGCG) or water (tannic acid) was added and the final solution was filtered through a 0.22 micron filter to remove any particulates and the solution was analyzed for drug concentration using HPLC.
(§6) PBS (EGCG) or water (tannic acid) was added and the final solution filtered through a 0.22 micron filter to remove any particulates and the solution was analyzed for drug concentration using HPLC.
(§7) PBS (EGCG) or water (Tannic acid) was added and the final solution was filtered through a 0.22 um filter to remove any particulates and the solution was analyzed for drug concentration using HPLC.
(§8) Method: drug and EGCG or tannic acid were dried down from acetonitrile (or methanol for tannic acid) solutions at various drug to EGCG or tannic acid ratios. PBS (EGCG) or water (Tannic acid pH adjusted to 7) was added and the final solution was filtered through a 0.22 um filter to remove any particulates and the solution was analyzed for drug concentration using HPLC methods.

[4] = physchem
Description: as §3, §4, §5, §6, §7, §8

[5] = system: MDCK cells; test: Uptake and transport of docetaxel through MDCK cell monolayers (transwell); assay type: in vitro ADME, canine; settings: EGCG-docetaxel solution 250 micrograms/ml, 2 hours 37° C., compared to tween or diblock copolymer micellar solutions
Description: (§1) The canine kidney cells, known as MDCK cells, are a non cancer proliferating cell line from canine kidneys. The MDR derivative of these cells is a multi-drug resistant version. The cell lines MDCK and MDCK-MDR are routinely used in the field of drug resistance because in the MDCK cells drugs can accumulate and kill the cells whereas the MDR cells contain drug efflux proteins that efflux the drug so that much higher drug doses are needed to maintain intracellular concentrations sufficient to kill these cells. […]
(§2) MDCK cells were seeded at 10000 cells per transwell membrane (Becton and Dickenson: 0.3 microns, 1 cm diameter) and grown for one week until a continuous monolayer was present. Drug at 250 micrograms/ml (doped with ^3H docetaxel, with carrier (tween, diblock (2000 40-60) PDLLA-mepeg or EGCG), all in hanks buffer, were added to the top well (0.4 ml) with 1.2 ml of hanks buffer in the base well. The wells were incubated at 37° C. for two hours. The transwells were then disassembled and the amount of drug in the base reservoir (transported through the cells) or in the cells (determined by dissolution of the filter after 3 washes in hanks buffer) was determined by liquid scintillation counting.

[6] = system: mdck-mdr cells; test: Uptake and transport of docetaxel through MDCK-MDR cell monolayers (transwell); assay type: in vitro ADME, canine; settings: EGCG-docetaxel solution 250 micrograms/ml, 2 hours 37° C., compared to tween or diblock copolymer micellar solutions
Description: as §1, §2

[7] = Solubility of drug in EGCG or tannic acid solutions (dried down, PBS or water added, 0.22 micron filtered, HPLC or absorbance)
Description: as §3, §4, §5, §6, §7, §8

CC(=O)O[C@H]1C(=O)[C@@]2(C)[C@H]([C@H](OC(=O)c3ccccc3)[C@]3(O)C[C@H](OC(=O)[C@H](O)[C@@H](NC(=O)c4ccccc4)c4ccccc4)C(C)=C1C3(C)C)[C@]1(OC(C)=O)CO[C@@H]1C[C@@H]2O [paclitaxel]
release of paclitaxel from coated balloon catheter ([1]; EGCG alone (zero percentage diblock copolymer), PBS-albumin pH 7.4): all paclitaxel was released in one minute
time to complete release of paclitaxel ([1]; EGCG with 10 percentage diblock copolymer): ≤ 2 min
time to complete release of paclitaxel ([1]; EGCG with 20 percentage diblock copolymer): ≤ 2 min
release rate of paclitaxel ([1]; EGCG with 50% diblock copolymer): slowed the release rate dramatically
total paclitaxel associated with the artery ([2]; EGCG coating (30 mg EGCG, 300 microgram drug), 2 minutes 37° C.): More than 50%
total paclitaxel washed out of the artery ([2]; EGCG coating with ultrasound): 2%
total paclitaxel associated with the artery ([2]; EGCG coating with ultrasound (4 MHz, 30 watts/cm2), 2 minutes): More than 50%
available paclitaxel taken up by the artery ([2]; EGCG coating with ultrasound): approximately 95%
available paclitaxel washed out from the artery ([2]; EGCG coating with ultrasound): less than 5%
total paclitaxel washed out of the artery ([2]; EGCG coating, 2 minutes 37° C.): 2%
available paclitaxel taken up by the artery ([2]; EGCG coating): approximately 95%
available paclitaxel washed out from the artery ([2]; EGCG coating): less than 5%
total paclitaxel washed out of the artery ([2]; diblock copolymer coating): less than 2%
total paclitaxel associated with the artery ([2]; diblock copolymer coating (6 mg), 2 minutes): Approximately 10%
residual on the catheter ([2]; tannic acid coating): approximately 29%
total paclitaxel associated with the artery ([2]; tannic acid coating): Approximately 40%
total paclitaxel washed out of the artery ([2]; tannic acid coating): less than 1%
available drug transferred to the tissues ([2]; tannic acid coating, ignoring drug on catheter and gloves): over 95%
stability of EGCG solutions of the drug [3]: not stable over 24 hours
stability of tannic acid solutions of the drug [3]: stable for 24 hours
solubility ([4]; aqueous with cosolvent or surfactant or cyclodextrin, thermodynamic from solid, drug concentration solubilised at maximum EGCG concentration): ~1000 µg/mL (≈ 1170 µM)
solubility ([4]; aqueous with cosolvent or surfactant or cyclodextrin, thermodynamic from solid, drug concentration solubilised at maximum tannic acid concentration): ~4800 µg/mL (≈ 5620 µM)
solubility ([4]; water, free solubility in water): 1 µg/mL (≈ 1.17 µM)

CC(=O)O[C@@]12CO[C@@H]1C[C@H](O)[C@@]1(C)C(=O)[C@H](O)C3=C(C)[C@@H](OC(=O)[C@H](O)[C@@H](NC(=O)OC(C)(C)C)c4ccccc4)C[C@@](O)([C@@H](OC(=O)c4ccccc4)[C@H]21)C3(C)C [docetaxel]
amount of docetaxel accumulated in the cells or transported through the cells [5]: increased
amount of docetaxel accumulated in the cells or transported through the cells [6]: increased
solubility ([7]; EGCG solution (200 mg/ml) in PBS, aqueous with cosolvent or surfactant or cyclodextrin, thermodynamic from solid, drug concentration solubilised at maximum EGCG concentration, EGCG 200 mg per ml, PBS): ~1500 µg/mL (≈ 1860 µM)
effect of temperature on solubility ([7]; EGCG solutions): no effect of temperature
stability of EGCG solutions of the drug ([7]; EGCG solutions, 24 hours): stable over 24 hours
stability of tannic acid solutions of the drug ([7]; tannic acid concentrations above 150 mg/ml, 24 hrs): not stable over 24 hrs
effect of temperature on solubility ([7]; tannic acid solutions, 37° C. or 50° C. compared to 23° C.): no effect of temperature
solubility ([7]; water, free solubility in water, no EGCG or tannic acid): 5 to 7 µg/mL (≈ 6.19 to 8.66 µM)
